Like-named read-outs stand apart in the source and are kept apart here.
Columns and labels:
[1] = biological target: SARS-CoV-2 Papain-like (PLpro) protease (Severe acute respiratory syndrome coronavirus 2, UniProt P0DTD1); assay: biochemical
SARS-CoV-2 replicon = assay: microbe, parasite or virus in culture; format: cell-based
SARS-CoV-2 USA-WA1/2020 = assay: SARS-CoV-2 Cellular Assay (Vero 76); format: cell-based; details: Severe acute respiratory syndrome coronavirus 2, Vero 76, 144 h, read-out: SARS-COV-2 BSL3 EC50
Method: SARS-CoV-2 Cellular Assay (Vero 76): Test compounds are serially diluted using eight half-log dilutions in test medium (MEM supplemented with 2% FBS and 50 µg/mL gentamicin). Each dilution is added to 5 wells of a 96-well plate with 80-100% confluent Vero 76 cells. Three wells of each dilution are infected with virus (SARS-CoV-2 USA-WA1/2020), and two wells remain uninfected as toxicity controls. Six wells are infected and untreated as virus controls, and six wells are uninfected and untreated as cell controls. Viruses are prepared to achieve the lowest possible multiplicity of infection (MOI˜0.002) that would yield >80% cytopathic effect (CPE) at 6 days. Plates are incubated at 37±2° C., 5% CO2. For neutral red assay, on day 6 post-infection, once untreated virus control wells reach maximum CPE, plates are stained with neutral red dye for approximately 2 hours (±15 minutes). Supernatant dye is removed, and wells are rinsed with PBS, and the incorporated dye is extracted in 50:50 Sorensen citrate buffer/ethanol for >30 minutes and the optical density is read on a spectrophotometer at 540 nm. Optical densities are converted to percent of cell controls and normalized to the virus control, then the concentration of test compound required to inhibit CPE by 50% (EC50) is calculated by regression analysis. The concentration of compound that would cause 50% cell death in the absence of virus was similarly calculated (CC50). EC50 ranges are reported as follows: A<1 µM; B 1-10 µM; C 10-50 µM; D>50 µM.

[2] = ubiquitin-fluorophore substrate (Ub-R110), 30 min preincubation at RT, run in duplicate, read-out: PLpro IC50
[3] = Severe acute respiratory syndrome coronavirus 2, Huh-7, 20 h; read-out: SARS-COV-2 replicon EC50
[4] = Severe acute respiratory syndrome coronavirus 2, Huh-7, 20 h, read-out: SARS-COV-2 replicon EC50

COC(=O)/C=C/C(=O)NNC(=O)CCc1ccc2cc1C(=O)N[C@H](C)c1cc(cc3ccccc13)CCCCCC(=O)N2 [Example 39]
IC50 [1, 2]: < 100 nM
EC50 (SARS-CoV-2 replicon; [3]): 1000 to 10000 nM
EC50 (SARS-CoV-2 USA-WA1/2020): < 1000 nM

COC(=O)/C=C/C(=O)NNC(=O)CCc1ccc2cc1C(=O)N[C@H](C)c1cc(cc3ccccc13)C=CCCCCN(C)C2=O [Example 29]
IC50 [1, 2]: < 100 nM

COC(=O)/C=C/C(=O)NNC(=O)CCc1ccc2cc1C(=O)N[C@H](C)c1cc(cc3ccccc13)CCCCCCS(=O)(=O)C2 [Example 23]
IC50 [1, 2]: < 100 nM
EC50 (SARS-CoV-2 replicon; [3]): 10000 to 50000 nM

COC(=O)/C=C/C(=O)NNC(=O)CCc1ccc2cc1C(=O)N[C@H](C)c1cc(cc3ccccc13)CCCCCN(C)C2=O [Example 31]
IC50 [1, 2]: < 100 nM

COC(=O)/C=C/C(=O)NNC(=O)CCc1ccc2cc1C(=O)N[C@H](C)c1cc(cc3ccccc13)CCCCCS(=O)(=O)C2 [Example 24]
IC50 [1, 2]: < 100 nM
EC50 (SARS-CoV-2 replicon; [3]): 10000 to 50000 nM

COC(=O)/C=C/C(=O)NNC(=O)CCc1ccc2cc1C(=O)N[C@H](C)c1cc(cc3ccccc13)CCCCCCN(C)C2=O [Example 30]
IC50 [1, 2]: < 100 nM
EC50 (SARS-CoV-2 replicon; [3]): 1000 to 10000 nM
EC50 (SARS-CoV-2 USA-WA1/2020): < 1000 nM

Cc1ccc2cc1C(=O)N[C@H](C)c1cc(cc3ccccc13)-c1cn(nn1)CCCCNC2 [Example 17]
IC50 [1]: 100 to 1000 nM
EC50 (SARS-CoV-2 replicon; [4]): 10000 to 50000 nM

Cc1ccc2cc1C(=O)N[C@H](C)c1c(ccc3ccccc13)CCCCCNC2 [Example 8]
IC50 [1, 2]: > 10000 nM

COC(=O)/C=C/C(=O)NNC(=O)CCc1ccc2cc1C(=O)N[C@H](C)c1cc(cc3ccccc13)CCCCOC(=O)N2 [Example 40]
IC50 [1, 2]: < 100 nM
EC50 (SARS-CoV-2 replicon; [3]): 1000 to 10000 nM
EC50 (SARS-CoV-2 USA-WA1/2020): < 1000 nM

Cc1ccc2cc1C(=O)N[C@H](C)c1cc(cc3ccccc13)-c1cn(nn1)CCCC(=O)NC2 [Example 13]
IC50 [1, 2]: > 10000 nM

Cc1ccc2cc1C(=O)N[C@H](C)c1cc(cc3ccccc13)C=CCCCCC2 [Example 6]
IC50 [1, 2]: > 10000 nM

Cc1ccc2cc1C(=O)N[C@H](C)c1cc(cc3ccccc13)N1CCN(CCCCC(=O)NC2)CC1 [Example 16]
IC50 [1, 2]: > 10000 nM

COC(=O)/C=C/C(=O)NNC(=O)CCc1ccc2cc1C(=O)N[C@H](C)c1cc(cc3ccccc13)C=CCCCCNC2=O [Example 27]
IC50 [1, 2]: < 100 nM

Cc1ccc2cc1C(=O)N[C@H](C)c1cc(cc3ccccc13)CCCCCCNC2 [Example 5]
IC50 [1, 2]: 100 to 1000 nM
EC50 (SARS-CoV-2 replicon; [3]): 1000 to 10000 nM

COC(=O)/C=C/C(=O)NNC(=O)CCc1ccc2cc1C(=O)N[C@H](C)c1cc(cc3ccccc13)C=CCCCCC2 [Example 19]
IC50 [1, 2]: < 100 nM
EC50 (SARS-CoV-2 replicon; [3]): 1000 to 10000 nM

Cc1ccc2cc1C(=O)N[C@H](C)c1cc(cc3ccccc13)C(=O)N1CCN(CC1)C(=O)CC2 [Example 9]
IC50 [1, 2]: > 10000 nM

COC(=O)/C=C/C(=O)NNC(=O)CCc1ccc2cc1C(=O)N[C@H](C)c1cc(cc3ccccc13)CCCCCNC2=O [Example 25]
EC50 (SARS-CoV-2 replicon; [4]): < 1000 nM
EC50 (SARS-CoV-2 USA-WA1/2020): < 1000 nM

Cc1ccc2cc1C(=O)N[C@H](C)c1cc(cc3ccccc13)C=CCCN(C(=O)OCc1ccccc1)C2 [Example 3]
IC50 [1, 2]: > 10000 nM

C[C@H]1NC(=O)c2cc(ccc2CCC(=O)NNC(=O)OC(C)(C)C)CCCCCC=Cc2cc1c1ccccc1c2 [Example 21]
IC50 [1, 2]: > 10000 nM

COC(=O)/C=C/C(=O)N(NC(=O)CCc1ccc2cc1C(=O)N[C@H](C)c1cc(cc3ccccc13)CCCCOCCNC2=O)C(=O)/C=C/C(=O)OC [Example 38]
IC50 [1, 2]: < 100 nM

COC(=O)/C=C/C(=O)NNC(=O)CCc1ccc2cc1C(=O)N[C@H](C)c1cc(cc3ccccc13)C=CCCCN(C)C2=O [Example 32]
IC50 [1, 2]: < 100 nM

COC(=O)/C=C/CNC(=O)C(=O)NCc1ccc2cc1C(=O)N[C@H](C)c1cc(cc3ccccc13)CCCCCNC2=O [Example 42, methyl (R,E)-4-(2-(((2-methyl-4,6-dioxo-3,7-diaza-1(1,3)-naphthalena-5(1,3)-benzenacyclododecaphane-5^6-yl)methyl)amino)-2-oxoacetamido)but-2-enoate]
IC50 [1, 2]: > 10000 nM

COC(=O)/C=C/C(=O)NNC(=O)CCc1ccc2cc1C(=O)N[C@H](C)c1cc(cc3ccccc13)C=CCCCNC2=O [Example 28]
IC50 [1, 2]: < 100 nM

Cc1ccc2cc1C(=O)N[C@H](C)c1cc(cc3ccccc13)C(=O)N(C)CCCC(=O)NC2 [Example 12]
IC50 [1, 2]: > 10000 nM

COC(=O)/C=C/C(=O)NNC(=O)CCc1ccc2cc1C(=O)N[C@H](C)c1cccc(c1)C=CCCCCC2 [Example 22]
IC50 [1, 2]: 1000 to 10000 nM

Cc1ccc2cc1C(=O)N[C@H](C)c1c(ccc3ccccc13)CCCCNC2 [Example 7]
IC50 [1, 2]: 1000 to 10000 nM

Cc1ccc2cc1C(=O)N[C@H](C)c1cc(cc3ccccc13)C(=O)N(C)CCCN(C)C(=O)CC2 [Example 11]
IC50 [1, 2]: > 10000 nM

Cc1ccc2cc1C(=O)N[C@H](C)c1cc(cc3ccccc13)CCCCCNC2 [Example 2]
IC50 [1, 2]: 100 to 1000 nM
EC50 (SARS-CoV-2 replicon; [3]): 1000 to 10000 nM
EC50 (SARS-CoV-2 USA-WA1/2020): 1000 to 10000 nM

C[C@H]1NC(=O)c2cc(ccc2CCC(=O)NN)CCCCCC=Cc2cc1c1ccccc1c2 [Example 20]
IC50 [1, 2]: > 10000 nM

COC(=O)/C=C/C(=O)NNC(=O)CCc1ccc2cc1C(=O)N[C@H](C)c1cc(cc3ccccc13)CCCCOCCNC2=O [Example 37]
IC50 [1, 2]: < 100 nM
EC50 (SARS-CoV-2 replicon; [3]): < 1000 nM
EC50 (SARS-CoV-2 USA-WA1/2020): < 1000 nM

COC(=O)/C=C/C(=O)NNC(=O)CCc1ccc2cc1C(=O)N[C@H](C)c1cccc3ccc(cc13)CCCCNC2=O [Example 34]
IC50 [1, 2]: 100 to 1000 nM

C[C@H]1NC(=O)c2cc(ccc2C#N)C(=O)NCCCCCc2cc1c1ccccc1c2 [Example 41]
IC50 [1, 2]: 1000 to 10000 nM

COC(=O)/C=C/C(=O)NNC(=O)CCc1ccc2cc1C(=O)N[C@H](C)c1cc(cc3ccccc13)CCCCCCC2 [Example 18]
IC50 [1, 2]: 100 to 1000 nM
EC50 (SARS-CoV-2 replicon; [3]): 10000 to 50000 nM
EC50 (SARS-CoV-2 USA-WA1/2020): 1000 to 10000 nM

COC(=O)/C=C/C(=O)NNC(=O)CCc1ccc2cc1C(=O)N[C@H](C)c1cc(cc3ccccc13)CCCCCNS2(=O)=O [Example 35]
IC50 [1, 2]: < 100 nM

Cc1ccc2cc1C(=O)N[C@H](C)c1cc(cc3ccccc13)N1CCN(CCCC(=O)NC2)CC1 [Example 15]
IC50 [1, 2]: 1000 to 10000 nM

COC(=O)/C=C/C(=O)NNC(=O)CCc1ccc2cc1C(=O)N[C@H](C)c1cc(cc3c1CCCC3)CCCCCNS2(=O)=O [Example 36]
IC50 [1, 2]: 100 to 1000 nM

Cc1ccc2cc1C(=O)N[C@H](C)c1cc(cc3ccccc13)-c1cn(nn1)CCCCC(=O)NC2 [Example 14]
IC50 [1, 2]: 100 to 1000 nM
EC50 (SARS-CoV-2 replicon; [3]): > 50000 nM

Cc1ccc2cc1C(=O)N[C@H](C)c1cc(cc3ccccc13)C=CCCCN(C(=O)OCc1ccccc1)C2 [Example 1]
IC50 [1]: > 10000 nM

COC(=O)/C=C/C(=O)NNC(=O)CCc1ccc2cc1C(=O)N[C@H](C)c1cc(cc3ccccc13)CCCCCCNC2=O [Example 26]
IC50 [1, 2]: < 100 nM

Cc1ccc2cc1C(=O)N[C@H](C)c1cc(cc3ccccc13)CCCCNC2 [Example 4]
IC50 [1, 2]: 1000 to 10000 nM

Reference: patent publication US20240207224A1, “MACROCYCLIC CHALCONE-AMIDE DERIVED ANTIVIRAL AGENTS” (priority 2022, published 2024)
